Data from US7041677B2, “Use of monochloroflosequinan in the treatment of sexual dysfunction” (R.T. Alamo Ventures I, LLC, priority 2002, dated 2006).

Biological target: T1, PDE6 (Bos taurus, UniProt P11541+P23439)
T1 construct: from tissue; host or cells: bovine retinal rod outer segments
T1 sequence (P11541 2-856 limits assumed): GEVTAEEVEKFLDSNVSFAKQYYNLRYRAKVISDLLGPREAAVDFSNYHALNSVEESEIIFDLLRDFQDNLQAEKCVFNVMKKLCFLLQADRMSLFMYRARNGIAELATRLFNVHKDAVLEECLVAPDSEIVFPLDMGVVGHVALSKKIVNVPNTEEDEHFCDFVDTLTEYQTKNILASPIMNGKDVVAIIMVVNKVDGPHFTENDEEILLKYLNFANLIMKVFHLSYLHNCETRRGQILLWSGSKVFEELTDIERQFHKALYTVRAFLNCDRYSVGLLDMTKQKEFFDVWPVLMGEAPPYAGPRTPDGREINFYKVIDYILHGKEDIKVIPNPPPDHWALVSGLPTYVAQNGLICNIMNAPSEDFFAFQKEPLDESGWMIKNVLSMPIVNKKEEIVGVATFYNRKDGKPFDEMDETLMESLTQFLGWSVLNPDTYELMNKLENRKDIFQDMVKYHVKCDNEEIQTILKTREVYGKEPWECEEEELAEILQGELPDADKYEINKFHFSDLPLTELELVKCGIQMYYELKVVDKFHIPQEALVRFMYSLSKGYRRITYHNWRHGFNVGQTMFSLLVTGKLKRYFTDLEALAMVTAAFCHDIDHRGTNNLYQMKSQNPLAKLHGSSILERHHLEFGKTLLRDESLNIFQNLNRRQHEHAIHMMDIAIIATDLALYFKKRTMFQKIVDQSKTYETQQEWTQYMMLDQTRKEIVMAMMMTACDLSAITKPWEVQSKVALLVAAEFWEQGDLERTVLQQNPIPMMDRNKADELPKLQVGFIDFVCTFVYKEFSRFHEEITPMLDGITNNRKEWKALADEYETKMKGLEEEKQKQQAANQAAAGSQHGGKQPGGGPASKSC
T1 sequence (P23439 2-850 limits assumed): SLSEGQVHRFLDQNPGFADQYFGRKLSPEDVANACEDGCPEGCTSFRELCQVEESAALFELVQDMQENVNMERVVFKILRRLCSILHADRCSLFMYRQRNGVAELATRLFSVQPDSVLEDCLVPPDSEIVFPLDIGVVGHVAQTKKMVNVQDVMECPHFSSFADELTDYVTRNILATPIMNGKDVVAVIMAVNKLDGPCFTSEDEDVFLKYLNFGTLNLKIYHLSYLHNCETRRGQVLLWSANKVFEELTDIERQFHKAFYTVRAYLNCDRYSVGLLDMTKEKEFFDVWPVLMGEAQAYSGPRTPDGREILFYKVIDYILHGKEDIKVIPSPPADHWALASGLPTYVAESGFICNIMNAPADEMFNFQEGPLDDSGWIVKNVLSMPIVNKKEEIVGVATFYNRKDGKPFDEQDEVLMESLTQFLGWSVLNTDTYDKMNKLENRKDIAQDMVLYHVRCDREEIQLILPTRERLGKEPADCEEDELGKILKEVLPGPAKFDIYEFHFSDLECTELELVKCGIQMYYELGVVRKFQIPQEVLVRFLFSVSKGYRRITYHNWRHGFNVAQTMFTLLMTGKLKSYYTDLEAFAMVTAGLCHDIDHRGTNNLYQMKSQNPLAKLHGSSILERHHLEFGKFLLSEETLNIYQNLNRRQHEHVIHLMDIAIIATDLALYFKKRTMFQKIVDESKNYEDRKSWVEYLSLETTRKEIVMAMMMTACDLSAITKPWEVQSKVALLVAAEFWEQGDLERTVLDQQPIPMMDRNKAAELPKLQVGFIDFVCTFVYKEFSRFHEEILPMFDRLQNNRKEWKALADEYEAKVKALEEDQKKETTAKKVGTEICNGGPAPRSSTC
Experiment: PDE6 enzyme inhibition assay
Assay type: biochemical, bovine
Settings: 200 μM, 25° C., 1% DMSO vehicle

SMILES	inhibition of PDE6
Cn1cc([S@+]([O-])CCl)c(=O)c2ccc(F)cc21 (single isomer, unassigned) [(+)-enantiomer of monochloroflosequinan]	greater than 50%
Cn1cc([S@@+]([O-])CCl)c(=O)c2ccc(F)cc21 (single isomer, unassigned) [(−)-enantiomer of monochloroflosequinan]	greater than 50%
